In ChEMBL document CHEMBL5696442, “Discovery of type II inhibitors of TGFβ-activated kinase 1 (TAK1) and mitogen-activated protein kinase kinase kinase kinase 2 (MAP4K2)” (J Med Chem, 2015):
Activity calls are given as the source filed them. The rule behind the calls is not given here.

Columns and labels:
[1] = molecular target: eIF-2-alpha kinase GCN2 (Homo sapiens) (UniProt Q9P2K8); assay: Inhibition of GCN2 domain2 Lys2 labeling site in human Huh-7 cell lysate at 1 uM by KiNativ Profiling analysis relative to control; assay type: subcellular
[2] = molecular target: Rho-associated protein kinase 1 (Homo sapiens) (UniProt Q13464); assay: Inhibition of ROCK1 Lys2 labeling site in human Huh-7 cell lysate at 1 uM by KiNativ Profiling analysis relative to control; assay type: subcellular
[3] = molecular target: Tyrosine-protein kinase ITK/TSK (Homo sapiens) (UniProt Q08881); assay: Inhibition of ITK (unknown origin) at 10 uM by Ambit Kinomescan binding assay
[4] = molecular target: c-Jun N-terminal kinase, JNK (Homo sapiens) (UniProt P45983+P53779+P45984); assay: Inhibition of JNK1/2/3 K2 labeling site in human Huh-7 cells at 10 uM by KiNativ Profiling analysis relative to control; assay type: cell-based
[5] = molecular target: T1, Serine/threonine-protein kinase ULK3 (Homo sapiens) (UniProt Q6PHR2); assay: Inhibition of ULK3 K1 labeling site in human Huh-7 cells at 10 uM by KiNativ Profiling analysis relative to control; assay type: cell-based
T1 sequence (whole entry): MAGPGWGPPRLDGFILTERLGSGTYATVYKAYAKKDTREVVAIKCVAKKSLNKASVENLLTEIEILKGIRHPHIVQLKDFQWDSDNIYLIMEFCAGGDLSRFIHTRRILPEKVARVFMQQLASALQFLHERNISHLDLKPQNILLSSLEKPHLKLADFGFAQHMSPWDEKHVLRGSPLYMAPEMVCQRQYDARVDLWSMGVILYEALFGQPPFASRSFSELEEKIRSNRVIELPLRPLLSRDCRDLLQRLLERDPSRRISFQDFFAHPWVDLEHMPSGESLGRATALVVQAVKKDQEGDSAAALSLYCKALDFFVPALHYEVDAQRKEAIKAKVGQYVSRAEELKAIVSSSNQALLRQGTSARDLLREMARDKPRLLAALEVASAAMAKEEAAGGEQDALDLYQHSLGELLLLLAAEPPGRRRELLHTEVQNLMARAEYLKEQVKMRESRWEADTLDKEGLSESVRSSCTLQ

[6] = molecular target: T2, Kinase suppressor of Ras 1 (Homo sapiens) (UniProt Q8IVT5); assay: Inhibition of KSR1 ACT labeling site harbouring SKNVFYDNGKVVITDFGLFGISGVVR in human A-375 cells at 0.05 uM by KiNativ Profiling analysis relative to control; assay type: cell-based
T2 sequence (whole entry): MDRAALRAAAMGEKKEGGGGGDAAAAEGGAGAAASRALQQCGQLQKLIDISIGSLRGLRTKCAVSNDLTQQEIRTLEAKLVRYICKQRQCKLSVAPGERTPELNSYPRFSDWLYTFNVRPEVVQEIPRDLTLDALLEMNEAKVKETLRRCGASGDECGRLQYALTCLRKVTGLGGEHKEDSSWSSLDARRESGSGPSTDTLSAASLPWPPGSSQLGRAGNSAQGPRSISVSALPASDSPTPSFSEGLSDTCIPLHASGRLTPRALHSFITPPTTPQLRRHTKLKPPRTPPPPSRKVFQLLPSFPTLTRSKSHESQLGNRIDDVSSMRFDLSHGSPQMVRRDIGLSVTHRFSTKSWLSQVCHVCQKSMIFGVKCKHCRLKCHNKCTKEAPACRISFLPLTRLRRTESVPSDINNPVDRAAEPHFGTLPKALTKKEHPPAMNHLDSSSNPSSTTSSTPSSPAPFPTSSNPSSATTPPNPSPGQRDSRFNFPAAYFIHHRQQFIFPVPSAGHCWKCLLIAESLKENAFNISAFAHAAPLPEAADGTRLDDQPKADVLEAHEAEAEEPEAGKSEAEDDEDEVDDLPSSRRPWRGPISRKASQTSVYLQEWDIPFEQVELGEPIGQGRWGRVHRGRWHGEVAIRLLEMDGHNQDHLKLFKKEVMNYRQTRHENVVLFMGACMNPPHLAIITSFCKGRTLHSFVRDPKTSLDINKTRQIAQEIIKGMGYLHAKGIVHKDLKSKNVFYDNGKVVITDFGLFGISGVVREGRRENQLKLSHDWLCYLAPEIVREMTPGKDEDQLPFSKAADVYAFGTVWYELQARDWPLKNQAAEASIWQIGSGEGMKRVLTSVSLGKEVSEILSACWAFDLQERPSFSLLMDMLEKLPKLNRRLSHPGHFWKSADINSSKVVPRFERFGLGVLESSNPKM

[7] = molecular target: T3, Dual specificity mitogen-activated protein kinase kinase 6 (Homo sapiens) (UniProt P52564); assay: Inhibition of MAP2K6 ACT labeling site in human Huh-7 cells at 1 uM by KiNativ Profiling analysis relative to control; assay type: cell-based
T3 sequence (whole entry): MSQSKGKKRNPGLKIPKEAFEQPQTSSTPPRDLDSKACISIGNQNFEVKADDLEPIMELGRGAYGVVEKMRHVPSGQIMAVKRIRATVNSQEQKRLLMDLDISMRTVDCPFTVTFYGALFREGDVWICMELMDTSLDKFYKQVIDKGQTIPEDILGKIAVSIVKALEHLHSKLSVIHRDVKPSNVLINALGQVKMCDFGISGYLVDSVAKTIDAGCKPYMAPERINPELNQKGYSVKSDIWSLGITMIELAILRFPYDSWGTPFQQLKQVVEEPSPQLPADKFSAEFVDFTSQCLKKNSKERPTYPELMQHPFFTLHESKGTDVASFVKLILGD

[8] = molecular target: Serine/threonine-protein kinase SIK1 (Homo sapiens) (UniProt P57059); assay: Inhibition of SIK (unknown origin) at 1 uM by Ambit Kinomescan binding assay relative to control
[9] = molecular target: Serine/threonine-protein kinase MRCK beta (Homo sapiens) (UniProt Q9Y5S2); assay: Inhibition of MRCKb in human A-375 cells at 5 uM by KiNativ Profiling analysis relative to control; assay type: cell-based
[10] = molecular target: Dual specificity protein kinase CLK1 (Homo sapiens) (UniProt P49759); assay: Inhibition of CLK1 (unknown origin) at 1 uM by Ambit Kinomescan binding assay relative to control; values are per cent of control
[11] = molecular target: Receptor tyrosine-protein kinase erbB-4 (Homo sapiens) (UniProt Q15303); assay: Inhibition of ERBB4 (unknown origin) at 1 uM by Ambit Kinomescan binding assay relative to control
Receptor tyrosine-protein kinase erbB-4 (Homo sapiens), sequence (Q15303 whole entry): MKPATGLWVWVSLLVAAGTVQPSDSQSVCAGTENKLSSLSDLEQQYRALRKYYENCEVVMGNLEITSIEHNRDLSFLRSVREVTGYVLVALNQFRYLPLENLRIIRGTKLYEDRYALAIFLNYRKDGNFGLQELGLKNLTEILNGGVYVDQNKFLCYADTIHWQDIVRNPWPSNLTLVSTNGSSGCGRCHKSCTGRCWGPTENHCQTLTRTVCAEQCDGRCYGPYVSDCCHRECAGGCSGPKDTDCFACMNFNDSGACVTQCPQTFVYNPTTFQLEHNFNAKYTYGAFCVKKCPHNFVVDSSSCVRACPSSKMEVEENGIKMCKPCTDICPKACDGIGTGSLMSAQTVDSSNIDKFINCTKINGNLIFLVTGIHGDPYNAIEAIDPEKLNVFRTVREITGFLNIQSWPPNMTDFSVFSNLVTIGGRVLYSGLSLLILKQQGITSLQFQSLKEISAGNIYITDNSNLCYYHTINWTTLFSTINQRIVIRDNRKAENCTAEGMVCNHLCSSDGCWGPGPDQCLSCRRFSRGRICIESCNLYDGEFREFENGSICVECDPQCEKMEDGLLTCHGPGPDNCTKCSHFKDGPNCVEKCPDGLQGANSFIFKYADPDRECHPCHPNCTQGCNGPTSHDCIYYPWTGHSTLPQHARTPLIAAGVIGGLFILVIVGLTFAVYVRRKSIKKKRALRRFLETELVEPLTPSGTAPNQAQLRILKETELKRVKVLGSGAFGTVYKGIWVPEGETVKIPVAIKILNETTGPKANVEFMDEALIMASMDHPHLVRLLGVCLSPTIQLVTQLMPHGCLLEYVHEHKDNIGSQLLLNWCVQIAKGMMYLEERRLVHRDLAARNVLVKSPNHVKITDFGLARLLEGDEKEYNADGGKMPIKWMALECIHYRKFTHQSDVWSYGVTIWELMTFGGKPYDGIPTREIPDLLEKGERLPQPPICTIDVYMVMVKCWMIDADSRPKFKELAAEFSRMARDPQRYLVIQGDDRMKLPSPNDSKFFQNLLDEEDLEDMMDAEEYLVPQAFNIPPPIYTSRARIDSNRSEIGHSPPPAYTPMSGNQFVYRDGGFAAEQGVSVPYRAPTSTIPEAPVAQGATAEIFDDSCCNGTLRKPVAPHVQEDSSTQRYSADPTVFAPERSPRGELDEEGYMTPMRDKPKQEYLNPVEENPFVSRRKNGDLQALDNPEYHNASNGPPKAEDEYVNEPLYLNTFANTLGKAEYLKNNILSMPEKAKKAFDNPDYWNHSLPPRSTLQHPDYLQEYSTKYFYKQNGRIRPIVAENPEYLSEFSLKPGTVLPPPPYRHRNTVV

Rho-associated protein kinase 1 (Homo sapiens), sequence (Q13464 2-1354 limits assumed): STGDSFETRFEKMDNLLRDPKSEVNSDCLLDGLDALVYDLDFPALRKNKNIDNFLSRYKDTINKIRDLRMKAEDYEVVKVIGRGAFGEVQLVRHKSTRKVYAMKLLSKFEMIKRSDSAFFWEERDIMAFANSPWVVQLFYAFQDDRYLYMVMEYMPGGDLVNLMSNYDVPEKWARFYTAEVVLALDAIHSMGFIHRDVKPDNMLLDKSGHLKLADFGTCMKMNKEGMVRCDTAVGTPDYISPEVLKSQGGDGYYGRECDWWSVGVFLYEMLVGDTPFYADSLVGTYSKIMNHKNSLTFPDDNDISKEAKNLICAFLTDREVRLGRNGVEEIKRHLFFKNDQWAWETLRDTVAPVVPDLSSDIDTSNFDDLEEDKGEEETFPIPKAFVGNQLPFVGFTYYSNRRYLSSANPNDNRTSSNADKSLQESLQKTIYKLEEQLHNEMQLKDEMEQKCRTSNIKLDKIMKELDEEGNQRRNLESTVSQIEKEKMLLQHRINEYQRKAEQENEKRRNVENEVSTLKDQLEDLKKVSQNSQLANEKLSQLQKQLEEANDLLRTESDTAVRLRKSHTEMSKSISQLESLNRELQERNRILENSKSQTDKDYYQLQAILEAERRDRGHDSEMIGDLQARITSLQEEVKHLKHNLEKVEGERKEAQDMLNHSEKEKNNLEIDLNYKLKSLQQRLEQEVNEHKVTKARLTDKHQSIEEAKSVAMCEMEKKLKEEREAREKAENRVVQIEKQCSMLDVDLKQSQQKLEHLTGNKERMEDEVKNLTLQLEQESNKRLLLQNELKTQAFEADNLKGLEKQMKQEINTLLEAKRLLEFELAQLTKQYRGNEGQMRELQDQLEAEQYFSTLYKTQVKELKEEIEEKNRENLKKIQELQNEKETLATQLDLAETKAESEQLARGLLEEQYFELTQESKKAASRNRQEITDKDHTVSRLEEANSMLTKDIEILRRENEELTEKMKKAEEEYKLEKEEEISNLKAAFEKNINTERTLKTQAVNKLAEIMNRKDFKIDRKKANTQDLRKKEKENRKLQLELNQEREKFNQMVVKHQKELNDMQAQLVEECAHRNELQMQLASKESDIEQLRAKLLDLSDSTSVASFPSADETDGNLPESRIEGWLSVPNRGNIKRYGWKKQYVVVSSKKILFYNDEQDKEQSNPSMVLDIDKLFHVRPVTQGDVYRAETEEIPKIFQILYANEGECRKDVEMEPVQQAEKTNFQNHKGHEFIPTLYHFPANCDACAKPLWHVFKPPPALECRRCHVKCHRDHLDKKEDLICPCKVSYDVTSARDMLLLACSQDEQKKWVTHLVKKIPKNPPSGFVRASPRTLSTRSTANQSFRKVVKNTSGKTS
Serine/threonine-protein kinase MRCK beta (Homo sapiens), sequence (Q9Y5S2 whole entry): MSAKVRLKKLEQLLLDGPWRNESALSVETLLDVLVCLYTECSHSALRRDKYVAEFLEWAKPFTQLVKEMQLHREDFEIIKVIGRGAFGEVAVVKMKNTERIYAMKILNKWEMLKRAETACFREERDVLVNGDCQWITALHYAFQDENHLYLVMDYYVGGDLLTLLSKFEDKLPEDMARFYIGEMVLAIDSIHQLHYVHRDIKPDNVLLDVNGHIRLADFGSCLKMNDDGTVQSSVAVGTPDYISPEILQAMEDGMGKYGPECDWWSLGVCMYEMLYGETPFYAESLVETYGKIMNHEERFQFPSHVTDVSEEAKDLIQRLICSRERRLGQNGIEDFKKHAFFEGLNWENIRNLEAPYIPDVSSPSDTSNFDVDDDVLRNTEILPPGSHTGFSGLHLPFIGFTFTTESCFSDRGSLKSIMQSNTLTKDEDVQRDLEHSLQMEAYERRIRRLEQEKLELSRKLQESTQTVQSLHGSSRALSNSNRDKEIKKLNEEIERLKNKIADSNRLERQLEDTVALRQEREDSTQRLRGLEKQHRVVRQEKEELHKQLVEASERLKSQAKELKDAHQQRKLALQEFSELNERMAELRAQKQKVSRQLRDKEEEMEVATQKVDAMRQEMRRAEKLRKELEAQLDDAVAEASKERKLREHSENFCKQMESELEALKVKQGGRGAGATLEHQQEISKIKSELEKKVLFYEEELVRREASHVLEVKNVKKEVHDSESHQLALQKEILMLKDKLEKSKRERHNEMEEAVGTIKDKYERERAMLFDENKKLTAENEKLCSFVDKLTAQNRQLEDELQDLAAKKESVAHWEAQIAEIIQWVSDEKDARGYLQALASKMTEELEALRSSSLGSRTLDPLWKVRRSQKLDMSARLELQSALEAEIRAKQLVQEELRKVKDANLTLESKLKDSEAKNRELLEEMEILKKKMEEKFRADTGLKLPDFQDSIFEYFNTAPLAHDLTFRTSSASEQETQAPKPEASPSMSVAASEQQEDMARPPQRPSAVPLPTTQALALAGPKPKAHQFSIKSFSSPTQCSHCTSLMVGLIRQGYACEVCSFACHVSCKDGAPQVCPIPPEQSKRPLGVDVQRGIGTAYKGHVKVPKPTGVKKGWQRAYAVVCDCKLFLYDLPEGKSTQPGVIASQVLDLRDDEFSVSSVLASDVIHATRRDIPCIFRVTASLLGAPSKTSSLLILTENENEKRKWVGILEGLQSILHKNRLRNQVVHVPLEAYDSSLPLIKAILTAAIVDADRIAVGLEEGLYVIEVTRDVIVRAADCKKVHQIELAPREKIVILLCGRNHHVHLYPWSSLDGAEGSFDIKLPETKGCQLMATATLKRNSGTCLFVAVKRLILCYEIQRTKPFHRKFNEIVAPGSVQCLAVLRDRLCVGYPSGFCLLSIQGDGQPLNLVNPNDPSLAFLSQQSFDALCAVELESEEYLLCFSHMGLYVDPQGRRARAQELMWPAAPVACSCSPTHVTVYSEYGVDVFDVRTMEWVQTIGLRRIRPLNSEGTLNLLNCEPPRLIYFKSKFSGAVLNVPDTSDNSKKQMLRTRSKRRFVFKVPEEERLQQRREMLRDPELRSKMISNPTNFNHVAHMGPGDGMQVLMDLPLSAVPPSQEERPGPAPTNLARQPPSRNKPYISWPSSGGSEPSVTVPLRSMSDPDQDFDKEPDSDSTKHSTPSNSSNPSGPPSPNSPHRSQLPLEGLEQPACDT
Tyrosine-protein kinase ITK/TSK (Homo sapiens), sequence (Q08881 whole entry): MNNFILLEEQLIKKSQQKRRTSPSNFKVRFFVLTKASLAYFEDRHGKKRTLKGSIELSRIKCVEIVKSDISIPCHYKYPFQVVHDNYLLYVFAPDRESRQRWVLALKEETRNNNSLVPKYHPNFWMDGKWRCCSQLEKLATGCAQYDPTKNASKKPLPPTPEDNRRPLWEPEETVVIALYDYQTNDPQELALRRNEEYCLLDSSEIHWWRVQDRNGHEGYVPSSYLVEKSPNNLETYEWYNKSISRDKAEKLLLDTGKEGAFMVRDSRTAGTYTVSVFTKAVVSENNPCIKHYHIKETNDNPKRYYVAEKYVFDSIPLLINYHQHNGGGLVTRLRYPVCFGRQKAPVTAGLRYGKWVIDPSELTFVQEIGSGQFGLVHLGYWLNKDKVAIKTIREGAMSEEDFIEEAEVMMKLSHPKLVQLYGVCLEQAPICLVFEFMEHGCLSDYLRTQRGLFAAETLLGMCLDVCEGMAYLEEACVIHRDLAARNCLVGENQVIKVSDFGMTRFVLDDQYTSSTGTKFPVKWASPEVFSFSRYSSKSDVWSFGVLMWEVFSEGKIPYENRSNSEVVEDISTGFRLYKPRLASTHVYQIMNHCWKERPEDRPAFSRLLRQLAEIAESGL

CNc1cc(Oc2cc(C(=O)Nc3cc(N4CCN(C)CC4)cc(C(F)(F)F)c3)ccc2C)ncn1
inhibition [1]: 2.5%
inhibition [2]: 2.7%

CCN1CCN(Cc2ccc(NC(=O)c3ccc(C)c(Oc4ccnc5[nH]ccc45)c3)cc2C(F)(F)F)CC1
inhibition [3]: inactive
inhibition [4]: 60.1%
inhibition [5]: 48%
inhibition [6]: -2.6%
inhibition [7]: 9.2%

CCN1CCN(Cc2ccc(NC(=O)c3ccc(C)c(/C=C/c4cnc5[nH]ccc5c4OC)c3)cc2C(F)(F)F)CC1
inhibition [8]: 2.1%
inhibition [9]: 8.4%
residual activity [10]: 59%
inhibition [11]: 3%
